Data from US10590422B2, “Anticancer therapeutic intervention” (PHYZAT BIOPHARMACEUTICALS, LDA., priority 2017, dated 2020).

Tests used:
[1] = tested on: ASCT2 mRNA; test: ASCT2 gene expression (RT-qPCR, relative to GAPDH) after ASCT2 gene silencing in SK-HEP-1 cells; format: cell-based, human; details: at 24 h; for ASCT2 mRNA relative abundance: liver carcinoma SK-HEP-1 cells, 10 nM siRNA, treatment 6 h, 0.5% Lipofectamine 2000, FIG. 4B
Protocol: (§1) SK-HEP-1, T24, HT-1080 and HCT-116 cell lines were maintained in a humidified atmosphere of 5% CO2 at 37° C. SK-HEP-1 cells were grown in RPMI-1640 (Sigma, St. Louis, Mo.) supplemented with 20% fetal bovine serum (FBS) (Gibco, UK), 100 U/mL penicillin G, 0.25 μg/mL amphotericin B, 100 μg/mL streptomycin (Gibco, UK), 25 mM sodium bicarbonate (Merck, Germany) and 25 mM N-2-hydroxyethylpiperazine-N′-2-ethanosulfonic acid (HEPES) (Sigma, St. Louis, Mo.). T24 and HT-1080 cells were grown, respectively, in Dulbecco's Modified Eagle's Medium (DMEM)—high glucose (Sigma, St. Louis, Mo.) and DMEM—low glucose (Sigma, St. Louis, Mo.), supplemented with 10% FBS (Gibco, UK), 100 U/mL penicillin G, 0.25 μg/mL amphotericin B, 100 μg/mL streptomycin (Gibco, UK), 25 mM sodium bicarbonate (Merck, Germany) and 25 mM HEPES (Sigma, St. Louis, Mo.). HCT-116 cells were grown in McCoy's 5A (Sigma, St. Louis, Mo.) supplemented with 10% FBS (Gibco, UK), 100 U/mL penicillin G, 0.25 μg/mL amphotericin B, 100 μg/mL streptomycin (Gibco, UK), 25 mM sodium bicarbonate (Merck, Germany) and 25 mM HEPES (Sigma, St. Louis, Mo.). For all cell lines the medium was changed every 2 days, and cells reached confluence 3-4 days after initial seeding. For subculturing, cells were dissociated with 0.25% trypsin-ethylenediaminetetraacetic acid (EDTA) (Sigma, St. Louis, Mo.), split 1:15 or 1:20 and subcultured in a 21-cm^2 growth area (Sarstedt, Germany).
(§2) Total RNA was isolated and purified using the SV Total RNA Isolation System (Promega, USA) according to manufacturer's instructions. RNA quality and concentration were verified in the NanoDrop ND1000 Spectrophotometer (Thermo Scientific, USA), and RNA integrity and genomic DNA contamination were evaluated by agarose gel electrophoresis. Total RNA (1 μg) was converted into cDNA using the Maxima Scientific First Strand cDNA Synthesis Kit for RT-qPCR (Thermo Scientific, USA), according to instructions. The following protocol was used: 1st step, 10 min at 25° C.; 2nd step, 15 min at 50° C.; 3rd step, 5 min at 85° C. cDNA was used for qPCR analysis using Maxima SYBR Green qPCR Master Mix (Thermo Scientific, USA) in the StepOnePlus instrument (Applied Biosystems, USA). QuantiTect Primer Assay for LAT1 and ASCT2 and for the endogenous control gene GAPDH (Quiagen, Germany) were used. The qPCR reaction was performed in 96-well PCR plates (Sarstedt, Germany) as follows: one cycle of 10 min at 95° C., followed by 40 PCR cycles at 95° C. 15 s and 60° C. 60 s. […] No template controls were always evaluated for each target gene. Quantification cycle (Cq) values were generated automatically by the StepOnePlus 2.3 Software and the ratio of the target gene was expressed in comparison to the endogenous control gene GAPDH.
(§3) Cells were plated in 24-well (Sarstedt, Germany) or 6-well plates (Sarstedt, Germany) or 96-well plates with black walls clear bottom (BD Biosciences, USA) and incubated 24 h under normal growth conditions. siRNAs against ASCT2 and transfection agent were diluted at desired concentrations and mixed according to transfection agent manufacturer's instructions. The mixture was incubated 20 min at RT for siRNA-complex formation, after which it was added to the cells and incubated at 37° C., 5% CO2. After the incubation period, serum and antibiotic was restored and cells were further incubated at normal conditions for the desired time points until evaluation of ASCT2 activity or ASCT2 expression (immunoblotting and RT-qPCR).

[2] = tested on: ASCT2; test: ASCT2 activity: [^14C]-L-alanine uptake in SK-HEP-1 cells after ASCT2 gene silencing; format: cell-based, human; details: ASCT2 siRNA; general statement, conditions not given
Protocol: (§4) Cells were plated in 24-well plates (Sarstedt, Germany) and grown until confluence was reached. On the day of the experiment, Cell culture medium was aspirated and cells were preincubated for 15 min in Hanks' medium (ChCl 140 mM, KCl 5 mM, MgSO4.7H2O 0.8 mM, K2HPO4 0.33 mM, KH2PO4 0.44 mM, MgCl2.6H2O 1 mM, CaCl2) 0.025 mM, Tris-HCl 9.75 mM, pH 7.4). Uptake was initiated by the addition of Hanks' medium with 0.25 μM [^14C]-L-alanine in the absence and in the presence of 3 mM unlabeled L-alanin. During preincubation and incubation cells were continuously shaken and maintained at 37° C. Uptake was terminated after 1 min by rapid removal of uptake solution by means of a vacuum pump connected to a Pasteur pipette, followed by a rapid wash with Hanks' medium. Subsequently, cells were solubilized in 0.1% vol/vol Triton X-100 (dissolved in 5 mM Tris-HCl, pH 7.4), and radioactivity was measured by liquid scintillation counting.
as §3

[3] = tested on: human colon cancer HTC-116 cells; test: Cell proliferation assay (calcein-AM) in human colon cancer HTC-116 cells; format: cell-based; details: for cell proliferation / proliferation: treatment 6 h; for cell proliferation: 72 h exposure; for proliferation: at 72 h, 0.17% Lipofectamine 2000 or 0.1% Injectin, FIGS. 19B and 20B
Protocol: as §1
Cell proliferation was measured using calcein-AM (Thermo Fisher Scientific, USA). The membrane permeant calcein-AM, a nonfluorescent dye, is taken up and converted by intracellular esterases to membrane impermeant calcein, which emits green fluorescence. Cells were plated in 96-well plates with black walls clear bottom (BD Biosciences, USA) and incubated 24 h under normal growth conditions. Cells were incubated with test items at 37° C., 5% C02. After the incubation period, serum and antibiotic was restored and cells were further incubated at normal conditions during 72 h. After treatment with test substances or vehicle, cells were washed twice with Hanks' medium and loaded with 2 μM calcein-AM in Hanks' medium, at 37° C. for 30 min. Fluorescence was measured at 485 nm excitation and 530 nm emission wavelengths in a microplate spectrofluorometer (Gemini EM, Molecular Devices). Nine consecutive fluorescence measurements are performed per well, to allow fluorescence readings in the whole area of the well, which was then considered for the calculation of mean fluorescence per well. To determine minimum staining for calcein (calceinmin), eight wells were treated with ethanol 30 min before calcein-AM addition. The percent cell number is calculated as [(calceinsample)/(calceincontrol)]×100.

[4] = tested on: ASCT2; test: ASCT2 activity: [^14C]-L-alanine uptake in fibrosarcoma HT-1080 cells after ASCT2 gene silencing; format: cell-based, human; details: fibrosarcoma HT-1080 cells; 5 nM siRNA; treatment 6 h; at 48 h; 0.4% Lipofectamine 2000; FIG. 8B
Protocol: as §4, §3

[5] = tested on: ASCT2 mRNA; test: ASCT2 gene expression (RT-qPCR) after ASCT2 gene silencing in human colon cancer HTC-116 cells; format: cell-based; details: treatment 6 h
Protocol: as §1, §2, §3

[6] = tested on: LAT1 mRNA; test: LAT1 gene expression (RT-qPCR) after LAT1 gene silencing in human colon cancer HTC-116 cells; format: cell-based; details: treatment 6 h
Protocol: as §1, §2
as §3, with “LAT1” for “ASCT2”

[7] = tested on: LAT1; test: LAT1 activity: [^14C]-L-leucine uptake in fibrosarcoma HT-1080 cells after LAT1 gene silencing; format: cell-based, human; details: 5 nM siRNA, treatment 6 h, at 48 h, 0.4% Lipofectamine 2000, FIG. 8A
Protocol: as §4, with “experiment, cell” for “experiment, Cell”, “medium (NaCl” for “medium (ChCl”, “by” for “by the”, “μM [^14C]-L-leucine” for “μM [^14C]-L-alanine”, “unlabeled L-leucine.” for “unlabeled L-alanin.”
as §3, with “LAT1” for “ASCT2”

[8] = 5 or 25 nM siRNA, at 24 h or 48 h, 0.5% Lipofectamine 2000, FIGS. 9B and 9C
[9] = 72 h, 0.17% Lipofectamine 2000 or 0.1% Injectin, FIG. 20A
[10] = 5 or 25 nM siRNA, at 24 h or 48 h, 0.5% Lipofectamine 2000, FIGS. 9A and 9C
[11] = 72 h, 0.17% Lipofectamine 2000 or 0.1% Injectin, FIG. 19A

Substance	ASCT2 mRNA relative abundance [1]	inhibiting sodium-independent [^14C]-L-leucine transport [2]	cell proliferation ([3]; 0.1% Injectin, FIG. 14)	proliferation [3]	[^14C]-L-alanine (0.25 μM) uptake at initial rate of uptake (1 min) [4]	ASCT2 mRNA relative abundance [5, 8]	ASCT2 mRNA relative abundance [5, 9]	LAT1 mRNA relative abundance [6, 10]	LAT1 mRNA relative abundance [6, 11]	[^14C]-L-leucine (0.25 μM) uptake at initial rate of uptake (1 min) [7]	further results
237 (AATTACGTGGACCGTACGGAG; chemistry not given here) [compound 237]	decreased	particularly effective									
278/367/408 (sense UGCCACGGUCGCCUCUGAGAA; antisense UUCUCAGAGGCGACCGUGGCA; chemistry not given here)			decreased	significantly decreased	decreased	decreased	significantly decreased				
267/356/402 (sense CCGGUCCUGUACCGUCCUCAA; antisense UUGAGGACGGUACAGGACCGG; chemistry not given here)			decreased	significantly decreased	decreased	decreased	significantly decreased				
278 (TGCCACGGTCGCCTCTGAGAA; chemistry not given here) [compound 278]	decreased	particularly effective									Effect on ASCT2 mRNA relative abundance compared with SEQ ID NO: 267 ([1]; SK-HEP-1 cells, 10 nM, p<0.05): significantly greater
61/391/392 (chain 1 CGUGAACUGCUACAGCGUGAATT; chain 2 UUCACUCUGUAGCAGUUCACGTT; siRNA; sugars by position and backbone not given here; further chemistry not fully specified)			decreased	significantly decreased				decreased	significantly decreased	decreased	Effect of 5-fluoruracil upon proliferation in combination with the siRNA ([3]; 5-FU 10 μM, siRNA 25 nM, 72 h, 0.037% Injectin, FIG. 17A): not
267/397/398 (sense CCGGUCCUGUACCGUCCUCAATT; antisense UUGAGGACGGUACAGGACCGGTT; siRNA; sugars by position and backbone not given here; further chemistry not fully specified)			decreased	significantly decreased	decreased	decreased	significantly decreased				Effect on cell proliferation compared with SEQ ID NO: 267/356/402 ([3]; 72 h, 0.1% Injectin, p<0.05): significantly greater; Effect of siRNA-LAT1 SEQ ID NO: 58/387/388 upon proliferation in combination with the siRNA-ASCT2 ([3]; 72 h, siRNA-ASCT2 at non-efficacious conditions (0.037% Injectin), FIG. 18): enhanced; cell proliferation ([3]; increasing Injectin (0.037% to 0.15%), FIG. 15): decreased
225 (AATAATGGCGTGGCCAAGCAC; chemistry not given here) [compound 225]	decreased	particularly effective									
58/162/411 (sense CUUCGCCACCUACCUGCUCAA; antisense UUGAGCAGGUAGGUGGCGAAG; chemistry not given here)			decreased	significantly decreased				decreased	significantly decreased	decreased	
267 (CCGGTCCTGTACCGTCCTCAA; chemistry not given here) [compound 267]	decreased	particularly effective									
61/165/396 (sense CGUGAACUGCUACAGCGUGAA; antisense UUCACUCUGUAGCAGUUCACG; chemistry not given here)			decreased	significantly decreased				decreased	significantly decreased	decreased	
